{"source": "patent US6274622A", "about": "“Method of treating diabetic ophthalmopathy” (priority 1999, dated 2001)", "key": {"diabetic retinopathy": {"system": "diabetic retinopathy", "details": "humans, mainly in the 1980s; cited from earlier work"}, "[1]": {"details": "accepted value; cited from earlier work"}, "humans": {"system": "humans", "assay": "administration to humans, tolerability", "parameters": "species or system human", "details": "in vivo"}, "in vivo [2]": {"assay": "in vivo", "details": "mouse, iv"}, "in vivo [3]": {"assay": "in vivo", "details": "dog, iv"}}}
{"smiles": "O=C1NC(=O)[C@@]2(CCOc3ccc(F)cc32)N1", "note": "[sorbinil]", "values": [{"measurement": "efficacy in slowing progress of diabetic retinopathy and other diabetic complications", "setting": "diabetic retinopathy", "value": "some efficacy"}, {"measurement": "toxicity / tolerability in patients", "setting": "diabetic retinopathy", "value": "highly toxic"}]}
{"smiles": "[Cl-].[Na+]", "note": "[common table salt]", "values": [{"measurement": "oral LD50", "setting": "[1]", "value": 3750, "unit": "mg/kg"}]}
{"smiles": "O=S(=O)([O-])CCSSCCS(=O)(=O)[O-].[Na+].[Na+]", "values": [{"measurement": "dose administered with no adverse effects", "setting": "humans", "value": "exceeding 15 g/m^2"}, {"measurement": "NOAEL", "setting": "in vivo [2]", "value": "> 3750", "unit": "mg/kg"}, {"measurement": "NOAEL", "setting": "in vivo [3]", "value": "> 3750", "unit": "mg/kg"}]}
